This assay deals with S. aureus strain Newman. Put plainly: IC50 determination of inhibition of staphyloxanthin synthesis. It counts as cell-based. The settings on record: Staphylococcus aureus; S. aureus strain Newman, Table 1; read-out: IC50, inhibitory activity on staphyloxanthin synthesis. Here is the method:
Selection of compound concentrations: based on the preliminary screening results, the ability of each compound to inhibit staphyloxanthin synthesis was determined. […] According to the assay results, 10 different concentration gradients were designed for each compound, such that the ability to inhibit staphyloxanthin synthesis comprised substantially from 0% to 100%.
Culture of the strains: single colonies of strain Newman and crtN mutant strain were picked from TSA plates, added into test tubes containing 4 mL of sterile TSB medium, and cultured at 37° C. and 250 rpm for 12 h for later use.
The relative level of staphyloxanthin synthesis at each concentration of the compound of the invention=A450 (sample)/A450 (negative control)*100%. With the molar concentration of the compound as the abscissa and the relative level of staphyloxanthin synthesis as the ordinate, a curve fitting of inhibitor concentration-inhibition rate (log(inhibitor) vs response) was performed in Graphpad prism 5.0 software, and the IC50 of the compound for inhibiting staphyloxanthin synthesis was calculated by software based on the fitting results.
S. aureus was selected for IC50 determination with respect to activity of inhibiting staphyloxanthin synthesis. […]

Consider `CN(C/C=C/c1ccccc1)Cc1coc2ccccc12` [Compound IA-1, (E)-N-methyl-N-[(benzofuran-3-yl)methylene]-3-phenylprop-2-en-1-amine], for which the IC50 was > 1000 nM.

With `CN(C/C=C/c1ccc(C(F)(F)F)cc1)Cc1coc2ccccc12` [Compound IA-2, (E)-N-methyl-N-[(benzofuran-3-yl)methylene]-3-(4-trifluoromethylphenyl)-prop-2-en-1-amine], the IC50 is 9.8 ± 0.3 nM.

`CN(C/C=C/c1ccc(Cl)cc1)Cc1coc2ccccc12` [Compound IA-3, (E)-N-methyl-N-[(benzofuran-3-yl)methylene]-3-(4-chlorophenyl)prop-2-en-1-amine]: the IC50 worked out at 4.9 ± 0.1 nM.

As for `CN(C/C=C/c1ccc(F)cc1)Cc1coc2ccccc12` [Compound IA-4, (E)-N-methyl-N-[(benzofuran-3-yl)methylene]-3-(4-fluorophenyl)prop-2-en-1-amine], the IC50 stood at 74.1 ± 2.7 nM.

For the molecule `CN(C/C=C/c1ccc(Br)cc1)Cc1coc2ccccc12` [Compound IA-5, (E)-N-methyl-N-[(benzofuran-3-yl)methylene]-3-(4-bromophenyl)prop-2-en-1-amine], the IC50 is 2.5 ± 0.3 nM.

Take `CN(C/C=C/c1ccc(C(F)F)cc1)Cc1coc2ccccc12` [Compound IA-6, (E)-N-methyl-N-[(benzofuran-3-yl)methylene]-3-(4-difluoromethylphenyl)-prop-2-en-1-amine]: the IC50 turned out to be 6.4 ± 0.1 nM.

For `CN(C/C=C/C1CCCC1)Cc1coc2ccccc12` [Compound IA-7, (E)-N-methyl-N-[(benzofuran-3-yl)methylene]-3-(4-cyclopentyl)prop-2-en-1-amine], the IC50 stood at 397 ± 20.3 nM.

On to `CN(C/C=C/c1ccccc1Cl)Cc1coc2ccccc12` [Compound IA-8, (E)-N-methyl-N-[(benzofuran-3-yl)methylene]-3-(2-chlorophenyl)prop-2-en-1-amine], for which the IC50 was found to be 360 ± 57.8 nM.

For the molecule `CN(C/C=C/c1ccc(C(F)(F)F)c(F)c1)Cc1coc2ccccc12` [Compound IA-9, (E)-N-methyl-N-[(benzofuran-3-yl)methylene]-3-(3-fluoro-4-trifluoromethyl-phenyl)prop-2-ene-1-the amine], the IC50 is > 1000 nM.

Regarding `CN(C/C=C/c1cccc2ccccc12)Cc1coc2ccccc12` [Compound IA-10, (E)-N-methyl-N-[(benzofuran-3-yl)methylene]-3-(naphthalen-1-yl)prop-2-en-1-amine], the IC50 is > 1000 nM.

Turning to `CN(C/C=C/c1ccc(Cl)cc1Cl)Cc1coc2ccccc12` [Compound IA-11, (E)-N-methyl-N-[(benzofuran-3-yl)methylene]-3-(2,4-dichlorophenyl)prop-2-en-1-amine], the IC50 is 6.2 ± 0.5 nM.

As to `CN(C/C=C/c1cccc(Cl)c1)Cc1coc2ccccc12` [Compound IA-12, (E)-N-methyl-N-[(benzofuran-3-yl)methylene]-3-(3-chlorophenyl)prop-2-en-1-amine], the IC50 is > 1000 nM.

With `COC(=O)c1ccc(/C=C/CN(C)Cc2coc3ccccc23)cc1` [Compound IA-13, (E)-N-methyl-N-[(benzofuran-3-yl)methylene]-3-(4-methylcarboxylatephenyl)prop-2-en-1-amine], the IC50 stood at 9.45 ± 0.75 nM.

For the molecule `CN(C/C=C/c1ccco1)Cc1coc2ccccc12` [Compound IA-14], the IC50 was > 1000 nM.

With `CN(C/C=C/c1ccc([N+](=O)[O-])cc1)Cc1coc2ccccc12` [Compound IA-16, (E)-N-methyl-N-[(benzofuran-3-yl)methylene]-3-(4-nitrophenyl)-prop-2-en-1-amine], the IC50 was determined as 9.5 ± 3.2 nM.

For `CCOc1ccc(/C=C/CN(C)Cc2coc3ccccc23)cc1` [Compound IA-17, (E)-N-methyl-N-[(benzofuran-3-yl)methylene]-3-(4-ethoxyphenyl)-prop-2-en-1-amine], the IC50 is > 1000 nM.

`CN(C/C=C/c1cccc(C(F)(F)F)c1)Cc1coc2ccccc12` [Compound IA-18, (E)-N-methyl-N-[(benzofuran-3-yl)methylene]-3-(3-trifluoromethylphenyl)-prop-2-en-1-amine]: the IC50 is > 1000 nM.

For the molecule `CN(C/C=C/c1cccc(F)c1)Cc1coc2ccccc12` [Compound IA-19, (E)-N-methyl-N-[(benzofuran-3-yl)methylene]-3-(3-fluorophenyl)-prop-2-en-1-amine], the IC50 was > 1000 nM.

In the case of `COc1cccc(/C=C/CN(C)Cc2coc3ccccc23)c1` [Compound IA-20, (E)-N-methyl-N-[(benzofuran-3-yl)methylene]-3-(3-methoxyphenyl)-prop-2-en-1-amine], the IC50 is > 1000 nM.

Take `Cc1ccc(/C=C/CN(C)Cc2coc3ccccc23)cc1` [Compound IA-21, (E)-N-methyl-N-[(benzofuran-3-yl)methylene]-3-(4-methylphenyl)-prop-2-en-1-amine]: the IC50 was determined as 9.9 ± 1.8 nM.

For the molecule `CN(C/C=C/c1ccccc1[N+](=O)[O-])Cc1coc2ccccc12` [Compound IA-22, (E)-N-methyl-N-[(benzofuran-3-yl)methylene]-3-(2-nitrophenyl)-prop-2-en-1-amine], the IC50 is > 1000 nM.

Consider `C/C=C/CN(C)Cc1coc2ccccc12` [Compound IA-23], for which the half-maximal inhibitory concentration (IC50) was > 1000 nM.

For `CN(C/C=C/c1ccc(C#N)cc1)Cc1coc2ccccc12` [Compound IA-24, (E)-N-Methyl-N-[(benzofuran-3-yl)methylene]-3-(4-cyanophenyl)-prop-2-en-1-amine], the IC50 is 80.1 ± 4.7 nM.

`CN(C/C=C/c1ccc2ccccc2c1)Cc1coc2ccccc12` [Compound IA-26, (E)-N-methyl-N-[(benzofuran-3-yl)methylene]-3-(2-naphthyl)-prop-2-en-1-amine]: the IC50 turned out to be 6.4 ± 0.6 nM.

Regarding `CN(C/C=C/c1ccc(C(C)(C)C)cc1)Cc1coc2ccccc12` [Compound IA-27, (E)-N-methyl-N-[(benzofuran-3-yl)methylene]-3-(4-tert-butylphenyl)-prop-2-en-1-amine], the IC50 was > 1000 nM.

On to `CN(C/C=C/c1ccccc1F)Cc1coc2ccccc12` [Compound IA-28, (E)-N-methyl-N-[(benzofuran-3-yl)methylene]-3-(2-fluorophenyl)-prop-2-en-1-amine], for which the IC50 is > 1000 nM.

For the molecule `CN(C/C=C/c1cccc([N+](=O)[O-])c1)Cc1coc2ccccc12` [Compound IA-29, (E)-N-methyl-N-[(benzofuran-3-yl)methylene]-3-(3-nitrophenyl)-prop-2-en-1-amine], the IC50 is > 1000 nM.

As to `CN(C/C=C/c1ccccc1C(F)(F)F)Cc1coc2ccccc12` [Compound IA-30, (E)-N-methyl-N-[(benzofuran-3-yl)methylene]-3-(2-trifluoromethylphenyl)-prop-2-en-1-amine], the IC50 is > 1000 nM.

As to `CN(C/C=C/c1ccc(C(F)(F)F)cc1F)Cc1coc2ccccc12` [Compound IA-31, (E)-N-methyl-N-[(benzofuran-3-yl)methylene]-3-(2-fluoro-4-trifluoromethyl-phenyl)-prop-2-en-1-amine], the IC50 is 9.2 ± 0.4 nM.

Turning to `CN(C/C=C/C1CCCCC1)Cc1coc2ccccc12` [Compound IA-32], the IC50 is > 1000 nM.

As for `CN(C/C=C/c1cccs1)Cc1coc2ccccc12` [Compound IA-33, (E)-N-methyl-N-[(benzofuran-3-yl)methylene]-3-thiophen-2-en-1-amine], the IC50 was > 1000 nM.

Regarding `COc1ccccc1/C=C/CN(C)Cc1coc2ccccc12` [Compound IA-34, (E)-N-methyl-N-[(benzofuran-3-yl)methylene]-3-(2-methoxyphenyl)-prop-2-en-1-amine], the IC50 was > 1000 nM.

In the case of `COc1ccc(/C=C/CN(C)Cc2coc3ccccc23)c(F)c1` [Compound IA-35, (E)-N-methyl-N-[(benzofuran-3-yl)methylene]-3-(2-fluoro-4-methoxyphenyl)-prop-2-en-1-amine], the concentration for half-maximal inhibition (IC50) is > 1000 nM.

In the case of `Cc1ccccc1/C=C/CN(C)Cc1coc2ccccc12` [Compound IA-36, (E)-N-methyl-N-[(benzofuran-3-yl)methylene]-3-(2-methylphenyl)-prop-2-en-1-amine], the IC50 amounted to 86.4 ± 0.6 nM.

In the case of `Cc1cccc(/C=C/CN(C)Cc2coc3ccccc23)c1` [Compound IA-37, (E)-N-methyl-N-[(benzofuran-3-yl)methylene]-3-(3-methylphenyl)-prop-2-en-1-amine], the IC50 is > 1000 nM.

In the case of `COc1ccc(/C=C/CN(C)Cc2coc3ccccc23)cc1F` [Compound IA-38, (E)-N-methyl-N-[(benzofuran-3-yl)methylene]-3-(3-fluoro-4-methoxyphenyl)-prop-2-en-1-amine], the IC50 was > 1000 nM.

Regarding `CN(C/C=C/C=C/c1ccc(-c2ccccc2)cc1)Cc1coc2ccccc12` [Compound IA-39, (2E,4E)-5-([1,1′-biphenyl]-4-yl)-N-(benzofuran-3-ylmethyl)-N-methylpenta-2,4-dien-1-amine], the IC50 is > 1000 nM.

As for `CN(CC/C=C/c1ccc(-c2ccccc2)cc1)Cc1coc2ccccc12` [Compound IA-40, (E)-4-([1,1′-biphenyl]-4-yl)-N-(benzofuran-3-ylmethyl)-N-methylbut-3-en-1-amine], the IC50 was > 1000 nM.

`CN(C/C=C/c1ccc(C(F)(F)F)cc1)Cc1csc2ccccc12` [Compound IA-41, (E)-N-(benzo[b]thiophen-3-ylmethyl)-N-methyl-3-(4-(trifluoromethyl)phenyl)prop-2-en-1-amine]: the IC50 is 52.1 ± 0.8 nM.

As for `FC(F)(F)c1ccc(/C=C/CNCc2coc3ccccc23)cc1` [Compound IB-1], the IC50 was > 1000 nM.

What is called IC50 is the concentration needed to halve the response being measured.

The values above are taken from patent US10829464B2, “Benzoheterocyclic alkylamine compounds and use thereof” (priority 2016, dated 2020).
